Reference: US12624018B1, “Inhibitors of RIPK2 and medical uses thereof” (Odyssey Therapeutics, Inc., priority 2022, dated 2026)

These compounds were tested against T1, RIPK2 enzyme (Homo sapiens, UniProt O43353) (assay: RIPK2 inhibition (ADP-Glo Kinase Assay)). Conditions: RIPK2 5 nM, ATP 150 μM, MBP substrate, read-out: RIPK2 IC50.
T1 construct: purchased Carna 09-128
Type: biochemical
How it was run: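 Human RIPK2 (5 nM) preincubated with compound 30 min at room temperature in 50 mM HEPES pH 7.5, 10 mM MgCl2, 2 mM DTT, 1 mM EGTA, 0.01% Brij-35, 0.05% BSA; native swine MBP as substrate. ADP formed quantified by ADP-Glo luminescence; percent inhibition relative to DMSO and no-enzyme controls.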

T1 sequence (O43353 1-299 limits assumed): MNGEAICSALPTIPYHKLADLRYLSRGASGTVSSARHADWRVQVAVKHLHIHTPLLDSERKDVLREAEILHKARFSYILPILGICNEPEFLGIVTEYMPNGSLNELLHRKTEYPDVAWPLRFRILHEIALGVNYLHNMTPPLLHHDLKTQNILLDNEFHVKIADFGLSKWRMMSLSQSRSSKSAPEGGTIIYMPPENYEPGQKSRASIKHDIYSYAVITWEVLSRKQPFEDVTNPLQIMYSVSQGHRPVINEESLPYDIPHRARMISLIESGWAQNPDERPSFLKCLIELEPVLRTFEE

IC50 [nM]	Compound
< 2.5	Cc1cc(CC(=O)Nc2cnn(C(C)(C)C)c2)c(F)cc1Oc1ccnc2ccc(C(=O)N[C@H]3C[C@@H](O)C3)cc12 [Compound 394, 4-(4-(2-((1-(tert-butyl)-1H-pyrazol-4-yl)amino)-2-oxoethyl)-5-fluoro-2-methyl-phenoxy)-N-((1s,3s)-3-hydroxy-cyclobutyl) quinoline-6-carboxamide]
< 2.5	Cc1cc(CC(=O)Nc2cnn(C(C)(C)C)c2)ccc1Oc1ccnc2ccc(OC3CCNCC3C)cc12 (racemic) [Compound 188, N-(1-(tert-butyl)-1H-pyrazol-4-yl)-2-(3-methyl-4-((6-((-3-methyl-piperidin-4-yl)oxy)quinolin-4-yl)oxy)phenyl) acetamide]
< 2.5	Cc1cc(CC(=O)Nc2cnn(C(C)(C)C)c2)ccc1Oc1ccnc2ccc(N3CCOC3=O)cc12 [Compound 293, N-(1-(tert-butyl)-1H-pyrazol-4-yl)-2-(3-methyl-4-((6-(2-oxooxazolidin-3-yl)quinolin-4-yl)oxy)phenyl) acetamide]
< 2.5	Cc1cc(CC(=O)Nc2cnn(C(C)(C)C)c2)ccc1Oc1ccnc2ccc(N3CCCC3=O)cc12 [Compound 290, N-(1-(tert-butyl)-1H-pyrazol-4-yl)-2-(3-methyl-4-((6-(2-oxopyrrolidin-1-yl)quinolin-4-yl)oxy)phenyl) acetamide]
< 2.5	Cc1cc(CC(=O)Nc2cnn(C(C)(C)C)c2)c(F)cc1Oc1ccnc2ccc(C(=O)N3CCC(O)C3)cc12 (single isomer, unassigned) [Compound 375, N-(1-(tert-butyl)-1H-pyrazol-4-yl)-2-(2-fluoro-4-((6-(3-hydroxy-pyrrolidine-1-carbonyl)quinolin-4-yl)oxy)-5-methyl-phenyl) acetamide]
< 2.5	CNC(=O)c1cc2c(Oc3cc(F)c(CC(=O)Nc4cnn(C(C)(C)C)c4)cc3C)ccnc2cc1OC [Compound 437, 4-(4-(2-((1-(tert-butyl)-1H-pyrazol-4-yl)amino)-2-oxoethyl)-5-fluoro-2-methylphenoxy)-7-methoxy-N-methylquinoline-6-carboxamide]
< 2.5	Cc1c(Oc2ccnc3ccc(N4CCOC4=O)cc23)ccc(CC(=O)Nc2cnn(C(C)(C)C)c2)c1F [Compound 298, N-(1-(tert-butyl)-1H-pyrazol-4-yl)-2-(2-fluoro-3-methyl-4-((6-(2-oxooxazolidin-3-yl)quinolin-4-yl)oxy)phenyl) acetamide]
< 2.5	Cc1c(Oc2ccnc3ccc(C(=O)N4CCC4)cc23)ccc(CC(=O)Nc2cnn(C(C)(C)C)c2)c1F [Compound 344, 2-(4-((6-(azetidine-1-carbonyl)quinolin-4-yl)oxy)-2-fluoro-3-methyl-phenyl)-N-(1-(tert-butyl)-1H-pyrazol-4-yl)acetamide]
< 2.5	Cc1cc(CC(=O)Nc2cnn(C(C)(C)C)c2)ccc1Oc1ccnc2ccc(OC3CC4(CNC4)C3)cc12 [Compound 211, 2-(4-((6-((2-azaspiro[3.3]heptan-6-yl)oxy)quinolin-4-yl)oxy)-3-methyl-phenyl)-N-(1-(tert-butyl)-1H-pyrazol-4-yl)acetamide]
< 2.5	Cc1c(Oc2ccnc3ccc(S(=O)(=O)C4COC4)cc23)ccc(CC(=O)Nc2cnn(C(C)(C)C)c2)c1F [Compound 248, N-(1-(tert-butyl)-1H-pyrazol-4-yl)-2-(2-fluoro-3-methyl-4-((6-(oxetan-3-ylsulfonyl)quinolin-4-yl)oxy)phenyl)acetamide]
< 2.5	Cc1c(Oc2ccnc3ccc(C(=O)N4CCC(N)C4)cc23)ccc(CC(=O)Nc2cnn(C(C)(C)C)c2)c1F (single isomer, unassigned) [Compound 353, 2-(4-((6-(3-amino-pyrrolidine-1-carbonyl)quinolin-4-yl)oxy)-2-fluoro-3-methyl-phenyl)-N-(1-(tert-butyl)-1H-pyrazol-4-yl)acetamide]
< 2.5	Cc1c(Oc2ccnc3ccc(C(=O)O)cc23)ccc(CC(=O)Nc2cnn(C(C)(C)C)c2)c1F [Compound 333, 4-(4-(2-((1-(tert-butyl)-1H-pyrazol-4-yl)amino)-2-oxoethyl)-3-fluoro-2-methyl-phenoxy) quinoline-6-carboxylic acid]
< 2.5	Cc1cc(CC(=O)Nc2cnn(C(C)(C)C)c2)c(F)cc1Oc1ccnc2ccc(-c3cnccn3)cc12 [Compound 425, N-(1-(tert-butyl)-1H-pyrazol-4-yl)-2-(2-fluoro-5-methyl-4-((6-(pyrazin-2-yl)quinolin-4-yl)oxy)phenyl)acetamide]
< 2.5	Cc1c(Oc2ccnc3ccc(N4C(=O)CCC4C)cc23)ccc(CC(=O)Nc2cnn(C(C)(C)C)c2)c1F (single isomer, unassigned) [Compound 296, N-(1-(tert-butyl)-1H-pyrazol-4-yl)-2-(2-fluoro-3-methyl-4-((6-(2-methyl-5-oxopyrrolidin-1-yl)quinolin-4-yl)oxy)phenyl) acetamide]
< 2.5	Cc1cc(CC(=O)Nc2cnn(C(C)(C)C)c2)c(F)cc1Oc1ccnc2ccc(-c3ncccn3)cc12 [Compound 424, N-(1-(tert-butyl)-1H-pyrazol-4-yl)-2-(2-fluoro-5-methyl-4-((6-(pyrimidin-2-yl)quinolin-4-yl)oxy)phenyl)acetamide]
< 2.5	Cc1cc(CC(=O)Nc2cnn(C(C)(C)C)c2)c(F)cc1Oc1ccnc2ccc(C(=O)NCCO)cc12 [Compound 364, 4-(4-(2-((1-(tert-butyl)-1H-pyrazol-4-yl)amino)-2-oxoethyl)-5-fluoro-2-methyl-phenoxy)-N-(2-hydroxy-ethyl) quinoline-6-carboxamide]
< 2.5	Cc1c(Oc2ccnc3ccc(S(=O)(=O)N4C[C@@H](C)O[C@@H](C)C4)cc23)ccc(CC(=O)Nc2cnn(C(C)(C)C)c2)c1F [Compound 386, N-(1-(tert-butyl)-1H-pyrazol-4-yl)-2-(4-((6-(((2R,6S)-2,6-dimethylmorpholino)sulfonyl)quinolin-4-yl)oxy)-2-fluoro-3-methylphenyl)acetamide]

Further lines, the compound ahead of its results:

Compound	IC50 [nM]
CC(C)(C)n1cc(NC(=O)Cc2ccc(Oc3ncnc4ccc(N5CCOCC5)cc34)cc2F)cn1 [Compound 14, N-(1-(tert-butyl)-1H-pyrazol-4-yl)-2-(2-fluoro-4-((6-morpholinoquinazolin-4-yl)oxy)phenyl)acetamide]	23.7
[2H]C([2H])([2H])c1cc(CC(=O)Nc2cnn(C(C)(C)C)c2)ccc1Oc1ccnc2ccc(OC3CCN(C)CC3)cc12 [Compound 105, N-(1-(tert-butyl)-1H-pyrazol-4-yl)-2-(3-(methyl-d3)-4-((6-((1-methyl-piperidin-4-yl)oxy)quinolin-4-yl)oxy)phenyl) acetamide]	< 2.5
COc1ccc2ncnc(Oc3cnc(CC(=O)Nc4cnn(C(C)(C)C)c4)c(F)c3)c2c1 [Compound 9, N-(1-(tert-butyl)-1H-pyrazol-4-yl)-2-(3-fluoro-5-((6-methoxyquinazolin-4-yl)oxy)pyridin-2-yl)acetamide]	21.8
[2H]C([2H])([2H])n1nc(NC(=O)Cc2ccc(Oc3ccnc4ccc(S(C)(=O)=O)cc34)cc2F)cc1C(C)(C)C [Compound 142, N-(5-(tert-butyl)-1-(methyl-d3)-1H-pyrazol-3-yl)-2-(2-fluoro-4-((6-(methylsulfonyl)quinolin-4-yl)oxy)phenyl)acetamide]	< 2.5
Cc1c(Oc2ccnc3ccc(S(C)(=O)=O)cc23)ccc(CC(=O)Nc2cc(C(C)(C)CO)n[nH]2)c1F [Compound 329, 2-(2-fluoro-3-methyl-4-((6-(methylsulfonyl)quinolin-4-yl)oxy)phenyl)-N-(5-(1-hydroxy-2-methylpropan-2-yl)-1H-pyrazol-3-yl)acetamide]	< 2.5
CN1CCC(Oc2ccc3ncnc(Oc4ccc(CC(=O)Nc5cnn(C(C)(C)C)c5)cc4Cl)c3c2)CC1 [Compound 159, N-(1-(tert-butyl)-1H-pyrazol-4-yl)-2-(3-chloro-4-((6-((1-methyl-piperidin-4-yl)oxy)quinazolin-4-yl)oxy)phenyl) acetamide]	< 2.5
CS(=O)(=O)c1ccc2nccc(Oc3ccc(CC(=O)Nc4cc(C5CC5)[nH]n4)c(F)c3)c2c1 [Compound 145, N-(5-cyclopropyl-1H-pyrazol-3-yl)-2-(2-fluoro-4-((6-(methylsulfonyl)quinolin-4-yl)oxy)phenyl)acetamide]	3.1
[2H]C([2H])([2H])S(=O)(=O)c1ccc2nccc(Oc3ccc(CC(=O)Nc4cnn(C(C)(C)C)c4)cc3C)c2c1 [Compound 198, N-(1-(tert-butyl)-1H-pyrazol-4-yl)-2-(3-methyl-4-((6-((methyl-d3)sulfonyl)quinolin-4-yl)oxy)phenyl)acetamide]	< 2.5
CC(C)(C)n1cc(NC(=O)Cc2ncc(Oc3ccnc4ccc(F)cc34)cn2)cn1 [Compound 4]	61.9
Cc1cc(CC(=O)Nc2cnn(C3CCC3)c2)ccc1Oc1ccnc2ccc(S(C)(=O)=O)cc12 [Compound 213, N-(1-cyclobutyl-1H-pyrazol-4-yl)-2-(3-methyl-4-((6-(methylsulfonyl)quinolin-4-yl)oxy)phenyl)acetamide]	< 2.5
Cc1c(Oc2ncnc3ccc(OC4CCN(C)CC4)cc23)ccc(CC(=O)Nc2cc(C(C)(C)C)n[nH]2)c1F [Compound 186, N-(5-(tert-butyl)-1H-pyrazol-3-yl)-2-(2-fluoro-3-methyl-4-((6-((1-methyl-piperidin-4-yl)oxy)quinazolin-4-yl)oxy)phenyl) acetamide]	< 2.5
Cc1cc(CC(=O)Nc2cnn(C(C)(C)C)c2)ccc1Oc1ncnc2ccc(OC3CCNCC3)cc12 [Compound 85, N-(1-(tert-butyl)-1H-pyrazol-4-yl)-2-(3-methyl-4-((6-(piperidin-4-yloxy)quinazolin-4-yl)oxy)phenyl) acetamide]	5.1
Cc1cc(CC(=O)Nc2cnn(C(C)(C)C)c2)ccc1Oc1ccnc2ccc(OC3CCN(C4COC4)CC3)cc12 [Compound 96, N-(1-(tert-butyl)-1H-pyrazol-4-yl)-2-(3-methyl-4-((6-((1-(oxetan-3-yl)piperidin-4-yl)oxy)quinolin-4-yl)oxy)phenyl) acetamide]	< 2.5
